In one assay the target is T1, hSERT (Homo sapiens, UniProt P31645).
T1 construct: yellow fluorescent protein (YFP); expressed in transfected cells
The assay is described as follows: Transporter uptake inhibition in HEK293 cells expressing hSERT. Conditions: [3H]-5-HT uptake; for IC50: mean (95% confidence interval). Format: cell-based. As for the experimental part:
(§1) The generation of HEK293 cells stably expressing the human isoforms of DAT (hDAT) and NET (hNET) was carried out as described previously (Scholze et al., 2002). For SERT, the human isoform (hSERT) was cloned in frame with yellow fluorescent protein (Schmid et al., 2001). The generation of a stable cell line was performed as described by Hilber and colleagues (Hilber et al., 2005). HEK293 cells were maintained in humidified atmosphere (5% CO2, 37°C) in DMEM, supplemented with 10% heat‐inactivated FBS and penicillin (100 u 100 mL^−1) and streptomycin (100 μg 100 mL^−1). Selection pressure was maintained by adding geneticin (50 μg·mL^−1) to the cell culture media.
(§2) Uptake experiments were conducted as described previously (Sitte et al., 2001) with minor modifications. In brief, HEK293 cells expressing hDAT, hNET or hSERT were seeded into poly‐D‐lysine (PDL) coated 96‐well plates at a density of 40 000 cells per well. The next day, DMEM was aspirated and replaced with Krebs HEPES buffer (KHB, 25 mM HEPES, 120 mM NaCl, 5 mM KCl, 1.2 mM CaCl2, and 1.2 mM MgSO4, 5 mM D‐glucose, pH adjusted to 7.3 with NaOH) (200 μL per well), and cells were pre‐incubated with various concentrations of mephedrone or its metabolites for 5 min (50 μL per well). Subsequently, 0.1 μM of [^3H]‐5‐HT or 0.02 μM of [^3H]‐MPP^+ were added, and uptake was terminated after 1 (hSERT) or 3 min (hDAT, hNET) by washing the cells with 200 μL of ice‐cold KHB. Cells were lysed with 1% SDS, and tritium uptake was determined by scintillation counting. Nonspecific uptake was determined in the presence of 10 μM paroxetine (hSERT) or 10 μM mazindol (hDAT and hNET).
(§3) Calculations were performed using Microsoft Excel® 2010 (Microsoft Corporation, Redmond, WA, USA) and GRAPHPAD PRISM 5.0. (GraphPad Software Inc., La Jolla, CA, USA). IC50 values for uptake inhibition and EC50 values for release were determined by nonlinear regression fits. Release data expressed as AUC were analysed by one‐way ANOVA followed by Bonferroni's multiple comparison test. Microdialysis and locomotor data were analysed by two‐way ANOVA (drug treatment × time) followed by Bonferroni's test. The effect of monensin treatment on basal efflux of tritiated substrate was analysed with the Mann–Whitney test. P values less than 0.05 (i.e. P < 0.05) were considered significant. The data and statistical analysis comply with the recommendations on experimental design and analysis in pharmacology (Curtis et al., 2015).

The target in the next assay is T2, DAT (Rattus norvegicus, UniProt P23977).
T2 construct: a native tissue preparation that contains plasma membrane transporters in situ; from tissue; host or cells: rat striatum synaptosomes
T2 sequence (P23977 whole entry): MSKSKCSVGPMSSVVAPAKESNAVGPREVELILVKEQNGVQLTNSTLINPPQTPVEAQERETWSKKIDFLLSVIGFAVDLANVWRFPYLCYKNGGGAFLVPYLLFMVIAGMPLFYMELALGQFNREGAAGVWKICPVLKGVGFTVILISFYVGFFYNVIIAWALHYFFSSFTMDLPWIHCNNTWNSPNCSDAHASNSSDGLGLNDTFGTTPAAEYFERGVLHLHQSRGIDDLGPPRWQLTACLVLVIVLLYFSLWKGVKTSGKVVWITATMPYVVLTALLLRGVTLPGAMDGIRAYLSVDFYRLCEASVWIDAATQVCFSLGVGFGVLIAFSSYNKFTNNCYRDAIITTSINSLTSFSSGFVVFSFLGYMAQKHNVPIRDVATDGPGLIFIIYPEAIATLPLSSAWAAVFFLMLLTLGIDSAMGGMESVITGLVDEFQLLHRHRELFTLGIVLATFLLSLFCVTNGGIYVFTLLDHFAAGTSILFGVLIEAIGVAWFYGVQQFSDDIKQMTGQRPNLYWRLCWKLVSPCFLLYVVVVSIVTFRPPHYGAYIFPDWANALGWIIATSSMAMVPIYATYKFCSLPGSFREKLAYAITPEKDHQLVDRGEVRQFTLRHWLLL
Put plainly: Transporter release assay in rat brain synaptosomes, DAT. The class given is biochemical. Conditions: [3H]-MPP+, mean (95% confidence interval). Here is the method: The ability of mephedrone and its metabolites to evoke release via DAT, NET and SERT was determined in rat brain synaptosomes as previously described (Baumann et al., 2012). Rats were killed with CO2, decapitated, and brains were rapidly removed and dissected on ice. Synaptosomes were prepared from striatum for DAT assays, whereas synaptosomes were prepared from whole brain minus striatum and cerebellum for the NET and SERT assays. [^3H]‐MPP^+ (9 nM) was used as the radiolabelled substrate for DAT and NET, whereas [^3H]‐5‐HT (5 nM) was used as the radiolabelled substrate for SERT. All buffers used in the release assays contained 1 μM reserpine to block vesicular uptake of substrates. The selectivity of assays was optimized for a single transporter by including unlabelled compounds [nomifensine and 1‐(2‐diphenylmethoxyethyl)‐4‐(3‐phenylpropyl)piperazine dihydrochloride (GBR12935) for SERT; GBR12935 and citalopram for NET; citalopram and desipramine for DAT] to prevent the uptake of [^3H]‐MPP^+ or [^3H]‐5‐HT by competing transporters. Synaptosomes were preloaded with radiolabelled substrate in Krebs‐phosphate buffer, which consisted of 126 mM NaCl, 2.4 mM KCl, 0.5 mM KH2PO4, 1.1 mM CaCl2, 0.83 mM MgCl2, 0.5 mM Na2SO4, 11.1 mM glucose, 13.7 mM Na2HPO4, 1 mg·mL^−1 ascorbic acid and 50 μM pargyline (pH = 7.4) for 1 h (steady state). […] Assays were terminated by vacuum filtration, and retained radioactivity was quantified by liquid scintillation counting.
Calculations were performed using Microsoft Excel® 2010 (Microsoft Corporation, Redmond, WA, USA) and GRAPHPAD PRISM 5.0. […] IC50 values for uptake inhibition and EC50 values for release were determined by nonlinear regression fits. Release data expressed as AUC were analysed by one‐way ANOVA followed by Bonferroni's multiple comparison test. Microdialysis and locomotor data were analysed by two‐way ANOVA (drug treatment × time) followed by Bonferroni's test. The effect of monensin treatment on basal efflux of tritiated substrate was analysed with the Mann–Whitney test. […]

For the next assay, the target named is T3, hNET (Homo sapiens, UniProt P23975).
T3 construct: expressed in transfected cells
T3 sequence (P23975 whole entry): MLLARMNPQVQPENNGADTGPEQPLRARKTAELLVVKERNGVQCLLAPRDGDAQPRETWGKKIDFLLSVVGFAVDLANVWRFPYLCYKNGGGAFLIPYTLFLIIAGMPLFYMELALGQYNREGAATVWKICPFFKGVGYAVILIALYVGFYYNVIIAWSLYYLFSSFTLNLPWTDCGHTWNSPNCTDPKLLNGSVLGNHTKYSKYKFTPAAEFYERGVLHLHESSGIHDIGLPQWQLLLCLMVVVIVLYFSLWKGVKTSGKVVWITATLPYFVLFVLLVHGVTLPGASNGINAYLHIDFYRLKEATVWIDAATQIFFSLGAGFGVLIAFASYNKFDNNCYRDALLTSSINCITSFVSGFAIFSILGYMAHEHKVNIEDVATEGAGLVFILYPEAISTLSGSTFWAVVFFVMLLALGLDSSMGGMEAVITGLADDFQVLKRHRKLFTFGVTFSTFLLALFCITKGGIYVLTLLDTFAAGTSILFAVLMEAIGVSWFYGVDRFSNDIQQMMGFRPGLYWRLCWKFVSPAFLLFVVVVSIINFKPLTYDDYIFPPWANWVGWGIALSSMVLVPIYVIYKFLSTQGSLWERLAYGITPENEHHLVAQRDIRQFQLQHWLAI
The assay is described as follows: Transporter uptake inhibition in HEK293 cells expressing hNET. Conditions: [3H]-MPP+ uptake; for IC50: mean (95% confidence interval). The class given is cell-based. Here is the method:
as §1, §2
as §3, with “GRAPHPAD” left out

A further assay has as its target T4, hDAT (Homo sapiens, UniProt Q01959).
T4 construct: expressed in transfected cells
Put plainly: Transporter uptake inhibition in HEK293 cells expressing hDAT. Conditions: [3H]-MPP+ uptake; for IC50: mean (95% confidence interval). The class given is cell-based. As for the experimental part: as §1, §2, §3

A further assay addresses T5, SERT (Rattus norvegicus, UniProt P31652).
T5 construct: a native tissue preparation that contains plasma membrane transporters in situ; from tissue; host or cells: rat whole brain minus striatum and cerebellum, synaptosomes
Put plainly: Transporter release assay in rat brain synaptosomes, SERT. Format: biochemical. Conditions: [3H]-5-HT; for EC50: mean (95% confidence interval). As for the experimental part: The ability of mephedrone and its metabolites to evoke release via DAT, NET and SERT was determined in rat brain synaptosomes as previously described (Baumann et al., 2012). Rats were killed with CO2, decapitated, and brains were rapidly removed and dissected on ice. Synaptosomes were prepared from striatum for DAT assays, whereas synaptosomes were prepared from whole brain minus striatum and cerebellum for the NET and SERT assays. [^3H]‐MPP^+ (9 nM) was used as the radiolabelled substrate for DAT and NET, whereas [^3H]‐5‐HT (5 nM) was used as the radiolabelled substrate for SERT. All buffers used in the release assays contained 1 μM reserpine to block vesicular uptake of substrates. The selectivity of assays was optimized for a single transporter by including unlabelled compounds [nomifensine and 1‐(2‐diphenylmethoxyethyl)‐4‐(3‐phenylpropyl)piperazine dihydrochloride (GBR12935) for SERT; GBR12935 and citalopram for NET; citalopram and desipramine for DAT] to prevent the uptake of [^3H]‐MPP^+ or [^3H]‐5‐HT by competing transporters. Synaptosomes were preloaded with radiolabelled substrate in Krebs‐phosphate buffer, which consisted of 126 mM NaCl, 2.4 mM KCl, 0.5 mM KH2PO4, 1.1 mM CaCl2, 0.83 mM MgCl2, 0.5 mM Na2SO4, 11.1 mM glucose, 13.7 mM Na2HPO4, 1 mg·mL^−1 ascorbic acid and 50 μM pargyline (pH = 7.4) for 1 h (steady state). Assays were initiated by adding 850 μL of preloaded synaptosomes to 150 μL of test drug. Dose–response curves were generated using eight different concentrations of mephedrone, nor‐mephedrone or 4‐OH‐mephedrone. Assays were terminated by vacuum filtration, and retained radioactivity was quantified by liquid scintillation counting.
as §3

Where [1] appears, read: IC50 on uptake mediated by hSERT.
[2] abbreviates: EC50 on transporter mediated efflux, DAT.
[3] abbreviates: IC50 on uptake mediated by hNET.
[4] abbreviates: IC50 on uptake mediated by hDAT.
Where [5] appears, read: EC50 on transporter mediated efflux, SERT.

Where “and” joins values, the source holds several entries; their conditions need not be identical. Equal values may be shown once. Read-outs that look alike come from different tables or passages of the source.

T4 sequence (Q01959 whole entry): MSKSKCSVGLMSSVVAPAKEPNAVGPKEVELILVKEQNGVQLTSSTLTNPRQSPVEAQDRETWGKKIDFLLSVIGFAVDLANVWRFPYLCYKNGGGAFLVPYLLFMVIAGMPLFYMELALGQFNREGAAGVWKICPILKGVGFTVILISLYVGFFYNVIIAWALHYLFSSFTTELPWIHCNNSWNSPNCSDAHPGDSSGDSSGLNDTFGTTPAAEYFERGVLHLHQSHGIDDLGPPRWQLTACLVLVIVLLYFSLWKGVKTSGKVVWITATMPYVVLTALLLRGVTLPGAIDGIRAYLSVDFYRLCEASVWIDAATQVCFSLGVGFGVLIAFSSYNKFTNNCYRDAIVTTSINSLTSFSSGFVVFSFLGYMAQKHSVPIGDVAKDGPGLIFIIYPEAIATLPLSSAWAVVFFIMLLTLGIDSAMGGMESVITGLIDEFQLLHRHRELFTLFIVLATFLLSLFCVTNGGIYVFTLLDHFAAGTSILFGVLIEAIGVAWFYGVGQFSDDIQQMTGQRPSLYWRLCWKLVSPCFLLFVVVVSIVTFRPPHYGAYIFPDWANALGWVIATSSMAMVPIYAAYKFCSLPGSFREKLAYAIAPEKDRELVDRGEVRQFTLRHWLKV
T5 sequence (P31652 whole entry): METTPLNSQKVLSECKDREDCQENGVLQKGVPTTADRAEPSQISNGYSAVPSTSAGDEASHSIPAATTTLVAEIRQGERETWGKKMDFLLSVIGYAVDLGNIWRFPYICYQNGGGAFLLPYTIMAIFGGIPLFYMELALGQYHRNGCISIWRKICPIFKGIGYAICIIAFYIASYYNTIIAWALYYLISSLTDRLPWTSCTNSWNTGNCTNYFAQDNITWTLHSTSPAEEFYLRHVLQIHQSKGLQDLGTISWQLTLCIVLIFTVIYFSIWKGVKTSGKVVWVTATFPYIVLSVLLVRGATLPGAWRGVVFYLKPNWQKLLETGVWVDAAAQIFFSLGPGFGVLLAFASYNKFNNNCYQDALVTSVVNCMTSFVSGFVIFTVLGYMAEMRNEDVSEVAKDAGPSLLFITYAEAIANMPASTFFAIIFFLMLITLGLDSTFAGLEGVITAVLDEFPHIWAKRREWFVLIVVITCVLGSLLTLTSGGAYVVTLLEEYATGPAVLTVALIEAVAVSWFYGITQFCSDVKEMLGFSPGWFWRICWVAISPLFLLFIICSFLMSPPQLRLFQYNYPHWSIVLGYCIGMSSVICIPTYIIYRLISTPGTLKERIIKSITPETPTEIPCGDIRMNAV
T1 sequence (P31645 whole entry): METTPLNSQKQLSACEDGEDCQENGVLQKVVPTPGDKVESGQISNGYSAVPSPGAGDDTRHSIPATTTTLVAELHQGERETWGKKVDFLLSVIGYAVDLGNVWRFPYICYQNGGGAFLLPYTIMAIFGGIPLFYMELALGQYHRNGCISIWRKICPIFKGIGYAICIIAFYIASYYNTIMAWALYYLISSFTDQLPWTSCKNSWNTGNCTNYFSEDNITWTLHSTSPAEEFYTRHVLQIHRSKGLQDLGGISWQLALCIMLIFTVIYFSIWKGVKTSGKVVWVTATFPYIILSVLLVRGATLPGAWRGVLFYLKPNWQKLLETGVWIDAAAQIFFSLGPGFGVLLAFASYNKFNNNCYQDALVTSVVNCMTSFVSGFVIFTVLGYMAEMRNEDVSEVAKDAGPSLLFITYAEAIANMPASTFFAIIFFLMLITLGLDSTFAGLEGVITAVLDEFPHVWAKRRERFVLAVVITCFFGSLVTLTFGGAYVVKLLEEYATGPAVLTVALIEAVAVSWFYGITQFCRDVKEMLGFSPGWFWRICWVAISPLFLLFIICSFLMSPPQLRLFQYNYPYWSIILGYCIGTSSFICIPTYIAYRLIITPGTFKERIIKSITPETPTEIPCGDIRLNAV

`CNC(C)C(=O)c1ccc(CO)cc1.Cl` (stereo not shown) [4‐OH‐mephedrone, 1‐(4‐(hydroxymethyl)phenyl)‐2‐(methylamino)propan‐1‐one hydrochloride]: the “efficacy of uptake inhibition at hSERT” value on hSERT is given as “fully efficacious inhibitors of uptake”. Moreover, the values for the IC50 at hSERT (read-out: IC50 on uptake mediated by hSERT), on hNET (read-out: IC50 on uptake mediated by hNET) and at hDAT (read-out: IC50 on uptake mediated by hDAT) were 73500 nM, 4850 nM and 2920 nM, respectively. Moreover, the concentration for a half-maximal effect (EC50) on DAT (read-out: EC50 on transporter mediated efflux, DAT) was 190 nM; on SERT (read-out: EC50 on transporter mediated efflux, SERT), 2000 nM and 2010 nM. The “efficacy of uptake inhibition at hNET” value at hNET is on record as “fully efficacious inhibitors of uptake”. Further, the “efficacy of uptake inhibition at hDAT” value at hDAT is given as “fully efficacious inhibitors of uptake”. For the same compound, the “rightward shift of SERT release curve compared with mephedrone” value at SERT was found to be 10 fold.
`CNC(C)C(=O)c1ccc(C)cc1.Cl` (stereo not shown) [Mephedrone, 2‐Methylamino‐1‐(p‐tolyl)propan‐1‐one hydrochloride]: the figures for the IC50 at hSERT (setting [1]), at hNET (setting [3]) and at hDAT (setting [4]) were 7830 nM, 2770 nM and 770 nM, respectively. The “efficacy of uptake inhibition at hSERT” value on hSERT is “fully efficacious inhibitors of uptake”. In addition, the EC50 at DAT (setting [2]) turned out to be 52 nM; at SERT (setting [5]), 210 nM. Besides, the “efficacy of uptake inhibition at hNET” value at hNET was “fully efficacious inhibitors of uptake”. In addition, at hDAT, the “efficacy of uptake inhibition at hDAT” value is reported as “fully efficacious inhibitors of uptake”.
As for `Cc1ccc(C(=O)C(C)N)cc1.Cl` (stereo not shown) [Nor‐mephedrone, 2‐amino‐1‐(p‐tolyl)propan‐1‐one hydrochloride], the IC50 at hSERT (setting [1]) turned out to be 10600 nM; on hNET (setting [3]), 5460 nM; on hDAT (setting [4]), 6350 nM. The “efficacy of uptake inhibition at hSERT” value on hSERT is recorded as “fully efficacious inhibitors of uptake”. The EC50 at DAT (setting [2]) is 220 nM; at SERT (setting [5]), 200 nM and 210 nM. For the same compound, on hNET, the “efficacy of uptake inhibition at hNET” value is listed as “fully efficacious inhibitors of uptake”. The “efficacy of uptake inhibition at hDAT” value on hDAT is “fully efficacious inhibitors of uptake”.

Usually IC50 stands for the concentration that inhibits the measured activity by half. One may read the EC50 as the concentration that produces a half-maximal response.

Values taken from publication PMC4978154, “Phase I metabolites of mephedrone display biological activity as substrates at monoamine transporters” (British Journal of Pharmacology, 2016).
